From US6346098B1, “Methods and kits for locally administering an active agent to an interstitial space of a host” (The Board of Trustees of the Leland Stanford Junior …, priority 2000, dated 2002)

Legend:
[1] = Coronary venous injection of Evans Blue dye via AIV or MCV, regional myocardial infiltration; assay type: in vivo, pigs; conditions: LV apex, anterior interventricular septum and anterior wall via AIV, inferoposterior wall via MCV
Method: Methods and Results: In 13 anesthetized pigs the coronary sinus was cannulated percutaneously and a balloon-tipped catheter was advanced to the anterior interventricular vein (AIV) or middle cardiac vein (MCV). […] Injection was performed with hyperbaric pressure in 8/13 cases (61%).

[2] = total group of 13 pigs, coronary venous injection

| Compound | infiltration of targeted myocardial regions [1] | persistence of contrast in myocardium (videodensitometric analysis) [2] | time for 50% clearance from myocardium (videodensitometric analysis) ([2]; FIG. 1) |
| --- | --- | --- | --- |
| Cc1cc(-c2ccc(/N=N/c3ccc4c(S(=O)(=O)O)cc(S(=O)(=O)O)c(N)c4c3O)c(C)c2)ccc1/N=N/c1ccc2c(S(=O)(=O)O)cc(S(=O)(=O)O)c(N)c2c1O [Evans Blue dye, Evans Blue] | localized, regional infiltration was reproducibly accomplished | – | – |
| CC(=O)Nc1c(I)c(NC(C)=O)c(I)c(C(=O)O)c1I [diatrizoate] | – | at least 30 minutes | ~4 min |
